Measurements reported in ChEMBL document CHEMBL1136141, “2-Phenyl-5,6-dihydro-2H-thieno[3,2-c]pyrazol-3-ol derivatives as new inhibitors of bacterial cell wall biosynthesis” (Bioorg Med Chem Lett, 2003).
pIC50: −log10 of the molar value. Values after ≈ are worked out from the molar mass of the structure shown.

Assays:
Escherichia coli [1] = assay: Minimum inhibitory activity against Escherichia coli GC 4559; format: functional
Escherichia coli [2] = assay: Minimum inhibitory activity against Escherichia coli GC 4560; format: functional
Enterococcus faecalis [3] = assay: Minimum inhibitory activity against Enterococcus faecalis GC 2242 (VRE); format: functional
Enterococcus faecalis [4] = assay: Minimum inhibitory activity against Enterococcus faecalis GC 4555 (ATCC); format: functional
[5] = Minimum inhibitory activity against MSCNS GC 646; format: functional
[6] = Minimum inhibitory activity against Streptococcus pneumoniae GC1894 (PRSP); format: functional
[7] = Minimum inhibitory activity in presence of 4% bovine serum albumin against Streptococcus pneumoniae GC1894 (PRSP); format: functional
Staphylococcus aureus [8] = assay: Minimum inhibitory activity against Staphylococcus aureus GC 1131 (MRSA); format: functional
Staphylococcus aureus [9] = assay: Minimum inhibitory activity against Staphylococcus aureus GC 2216 (ATCC); format: functional
Staphylococcus aureus [10] = assay: Minimum inhibitory activity against Staphylococcus aureus GC 4543 (MSSA); format: functional
[11] = molecular target: T1, UDP-N-acetylmuramate--L-alanine ligase (Staphylococcus aureus, UniProt O31211); assay: In vitro inhibitory activity against Staphylococcus aureus UDP-N-acetylmuramoyl-L-alanine synthetase
T1 sequence (O31211 whole entry): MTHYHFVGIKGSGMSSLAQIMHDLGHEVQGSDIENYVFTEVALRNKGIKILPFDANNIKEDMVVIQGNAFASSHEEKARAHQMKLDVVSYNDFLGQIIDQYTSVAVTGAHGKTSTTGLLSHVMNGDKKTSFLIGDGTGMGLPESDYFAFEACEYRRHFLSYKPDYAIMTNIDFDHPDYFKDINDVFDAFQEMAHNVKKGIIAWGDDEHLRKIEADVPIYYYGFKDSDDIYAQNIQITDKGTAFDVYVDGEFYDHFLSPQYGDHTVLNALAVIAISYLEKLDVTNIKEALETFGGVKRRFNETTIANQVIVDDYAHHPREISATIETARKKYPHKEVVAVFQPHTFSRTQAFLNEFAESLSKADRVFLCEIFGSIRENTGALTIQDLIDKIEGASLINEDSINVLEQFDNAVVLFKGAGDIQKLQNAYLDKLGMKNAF

[12] = molecular target: T2, UDP-N-acetylenolpyruvoylglucosamine reductase (Staphylococcus aureus, UniProt P61431); assay: In vitro inhibitory activity against Staphylococcus aureus UDP-N-acetylmuramate dehydrogenase
T2 sequence (P61431 whole entry): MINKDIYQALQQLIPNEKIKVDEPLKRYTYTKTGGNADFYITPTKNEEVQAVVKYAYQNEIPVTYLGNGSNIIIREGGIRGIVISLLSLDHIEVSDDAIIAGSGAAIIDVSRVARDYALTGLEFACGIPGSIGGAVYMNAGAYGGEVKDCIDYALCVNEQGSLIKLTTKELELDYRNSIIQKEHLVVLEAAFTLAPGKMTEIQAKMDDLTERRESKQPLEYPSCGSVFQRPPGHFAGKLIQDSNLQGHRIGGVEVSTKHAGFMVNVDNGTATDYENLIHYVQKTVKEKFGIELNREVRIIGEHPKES

[13] = molecular target: T3, UDP-N-acetylmuramoylalanine--D-glutamate ligase (Staphylococcus aureus, UniProt P0A091); assay: In vitro inhibitory activity against Staphylococcus aureus UDP-N-acetylmuramoyl-L-alanyl-D-glutamate synthetase
T3 sequence (P0A091 whole entry): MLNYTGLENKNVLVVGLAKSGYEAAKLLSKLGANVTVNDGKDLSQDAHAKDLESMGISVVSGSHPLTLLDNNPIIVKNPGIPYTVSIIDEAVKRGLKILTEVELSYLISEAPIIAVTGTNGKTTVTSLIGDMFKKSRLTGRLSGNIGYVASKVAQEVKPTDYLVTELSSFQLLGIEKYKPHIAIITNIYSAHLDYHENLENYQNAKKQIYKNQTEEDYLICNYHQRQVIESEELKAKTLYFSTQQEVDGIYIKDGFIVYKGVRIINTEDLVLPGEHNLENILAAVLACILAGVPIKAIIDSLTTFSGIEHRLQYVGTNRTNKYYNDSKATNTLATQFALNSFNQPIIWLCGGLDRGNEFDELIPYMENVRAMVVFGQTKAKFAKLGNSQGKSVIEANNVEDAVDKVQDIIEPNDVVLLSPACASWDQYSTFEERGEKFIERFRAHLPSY

Structure (SMILES) | MIC (Escherichia coli [1]) [µg/mL] | MIC (Escherichia coli [2]) [µg/mL] | MIC (Enterococcus faecalis [3]) [µg/mL] | MIC (Enterococcus faecalis [4]) [µg/mL] | MIC ([5]; Staphylococcus) [µg/mL] | MIC [6] [µg/mL] | MIC [7] [µg/mL] | MIC (Staphylococcus aureus [8]) [µg/mL] | MIC (Staphylococcus aureus [9]) [µg/mL] | MIC (Staphylococcus aureus [10]) [µg/mL] | pIC50 [11] | pIC50 [12] | pIC50 [13] | MIC [5] [µg/mL]
Oc1c2c(nn1-c1cc(C(F)(F)F)cc(C(F)(F)F)c1)CCS2 | > 128 | > 128 | 16 (≈ 45.2 µM) | 32 (≈ 90.3 µM) | > 128 | 2 (≈ 5.65 µM) | > 128 | 32 (≈ 90.3 µM) | 32 (≈ 90.3 µM) | 32 (≈ 90.3 µM) | < 4.15 | < 4.15 | < 4.15 | 
N#Cc1cccc(-n2nc3c(c2O)SCC3)c1 | > 128 | 64 (≈ 263 µM) | 8 (≈ 32.9 µM) | 8 (≈ 32.9 µM) | 2 (≈ 8.22 µM) | 4 (≈ 16.4 µM) | > 128 | 32 (≈ 132 µM) | 8 (≈ 32.9 µM) | 16 (≈ 65.8 µM) | 4.26 | 4.24 | 4.33 | 
O=[N+]([O-])c1ccc(-n2nc3c(c2O)SCC3)cc1 | > 128 | > 128 | 64 (≈ 243 µM) | 32 (≈ 122 µM) | 1 (≈ 3.8 µM) | 4 (≈ 15.2 µM) | > 128 | 64 (≈ 243 µM) | 4 (≈ 15.2 µM) | 2 (≈ 7.6 µM) | 4.14 | 4.67 | 4.44 | 
Oc1c2c(nn1-c1ccc(Br)cc1)CCS2 | > 128 | > 128 | 32 (≈ 108 µM) | 16 (≈ 53.8 µM) | 1 (≈ 3.36 µM) | 1 (≈ 3.36 µM) | > 128 | 16 (≈ 53.8 µM) | 2 (≈ 6.73 µM) | 4 (≈ 13.5 µM) | 4.42 | 4.92 | 4.52 | 
CC1Cc2nn(-c3ccc(Cl)cc3)c(O)c2S1 (stereo unspecified) | > 128 | > 128 | 2 (≈ 7.5 µM) | 32 (≈ 120 µM) | 16 (≈ 60 µM) | 4 (≈ 15 µM) | > 128 | 16 (≈ 60 µM) | 32 (≈ 120 µM) | 16 (≈ 60 µM) | < 4.03 | < 4.03 | 4.19 | 
Oc1c2c(nn1-c1cccc(Cl)c1)CCS2 | > 128 | > 128 | 8 (≈ 31.7 µM) | 32 (≈ 127 µM) | 32 (≈ 127 µM) | 2 (≈ 7.91 µM) | > 128 | 32 (≈ 127 µM) | 8 (≈ 31.7 µM) | 32 (≈ 127 µM) | 4.20 | < 4.00 | 4.48 | 
Oc1c2c(nn1-c1ccccc1)CCS2 | > 128 | > 128 | 4 (≈ 18.3 µM) | 32 (≈ 147 µM) |  | 4 (≈ 18.3 µM) | > 128 | 16 (≈ 73.3 µM) | 16 (≈ 73.3 µM) | 32 (≈ 147 µM) | < 3.94 | < 3.94 | 4.02 | 16 (≈ 73.3 µM)
CC(C)c1ccc(-n2nc3c(c2O)SCC3)cc1 | > 128 | > 128 | > 128 | > 128 | 128 (≈ 492 µM) | 32 (≈ 123 µM) | > 128 | 128 (≈ 492 µM) | 128 (≈ 492 µM) | 128 (≈ 492 µM) | < 4.02 | < 4.02 | < 4.02 | 
Oc1c2c(nn1-c1ccc(F)cc1)CCS2 | > 128 | 32 (≈ 135 µM) | 8 (≈ 33.9 µM) | 8 (≈ 33.9 µM) | 0.25 (≈ 1.06 µM) | 2 (≈ 8.46 µM) | > 128 | 2 (≈ 8.46 µM) | 2 (≈ 8.46 µM) | 4 (≈ 16.9 µM) | < 3.98 | 4.29 | < 3.98 | 
Oc1c2c(nn1-c1ccccc1C(F)(F)F)CCS2 | > 128 | 128 (≈ 447 µM) | 16 (≈ 55.9 µM) | 32 (≈ 112 µM) | 64 (≈ 224 µM) | 8 (≈ 27.9 µM) | > 128 | 32 (≈ 112 µM) | 32 (≈ 112 µM) | 32 (≈ 112 µM) | < 4.06 | < 4.06 | < 4.06 | 
Oc1c2c(nn1-c1cccc(C(F)(F)F)c1)CCS2 | > 128 | 128 (≈ 447 µM) | 8 (≈ 27.9 µM) | 16 (≈ 55.9 µM) | 2 (≈ 6.99 µM) | 0.5 (≈ 1.75 µM) | > 128 | 4 (≈ 14 µM) | 2 (≈ 6.99 µM) | 1 (≈ 3.49 µM) | < 4.06 | 4.13 | 4.17 | 
Oc1c2c(nn1-c1ccc(Cl)cc1)CC(c1ccccc1)S2 (stereo unspecified) | > 128 | 128 (≈ 389 µM) | 64 (≈ 195 µM) | > 128 | 128 (≈ 389 µM) | 64 (≈ 195 µM) | > 128 | 128 (≈ 389 µM) | 64 (≈ 195 µM) | 128 (≈ 389 µM) | < 4.12 | 4.48 | 4.13 | 
CN[C@H](CC(C)C)C(=O)N[C@H]1C(=O)N[C@@H](CC(N)=O)C(=O)N[C@H]2C(=O)N[C@H]3C(=O)N[C@H](C(=O)N[C@H](C(=O)O)c4cc(O)cc(O)c4-c4cc3ccc4O)[C@H](O)c3ccc(c(Cl)c3)Oc3cc2cc(c3O[C@@H]2O[C@H](CO)[C@@H](O)[C@H](O)[C@H]2O[C@H]2C[C@](C)(N)[C@H](O)[C@H](C)O2)Oc2ccc(cc2Cl)[C@H]1O [VANCOMYCIN] | > 128 | 0.25 (≈ 0.173 µM) | > 128 | 2 (≈ 1.38 µM) |  | < 0.12 |  |  |  |  |  |  |  | 
